Assay results from patent US20170247429A1, “BLOOD-BRAIN BARRIER DISRUPTING AGENTS AND USES THEREOF” (TEL HASHOMER MEDICAL RESEARCH INFRASTRUCTURE AND SERVICES …, priority 2014, published 2017).

Experiments:
[1] = system: brain-glioma (CNS-1) tumor; test: Tumor growth in glioma rat model (T1-weighted MRI tumor volumes); format: in vivo, Lewis male rats; conditions: MTX 6 mg/kg IP, EA-HSA 0.5 mg/ml CED where combined
Procedure: Intracranial inoculation of the tumor was performed as follows: a midline scalp incision was carried out under general anesthesia in order to locate the bregma. A burr hole (1 mm) was drilled on the right side, 3 mm anterior and 2 mm lateral to the bregma. A 33-gauge needle attached to a 1,000 μl syringe was placed stereotactically into the striatum to a depth of 5 mm through which a pellet of 2×10^5 CNS-1 rat glioma cells precipitated in 10 μl PBS buffer was infused into the striatum. The infusion was performed with a BASI syringe pump at a rate of 2 μl/min over a period of 5 min. The burr hole was sealed with bone wax to avoid the tumors from growing out of the skull. The intracranial inoculation of the tumor is designated Day-4 in Table 2.
EA-HSA was administered by CED into the rat brains under full anesthesia. For CED, a midline scalp incision was made under anesthesia to identify the bregma. Then, a burr hole (1 mm) was made in the right region of the skull, 3 mm anterior and 2 mm lateral to the bregma. […]
The volume (in mm^3) of BBB disruption and the increase in tumor volume were calculated from T1-weighted MR images. […] The number of pixels in the ROIs was then counted and multiplied by the volume of a single pixel (voxel). Tumor growth rates were calculated by dividing the tumor volumes at days 2 and 7 post treatment with the baseline tumor volumes (measured at day 0).

[2] = rat, in vivo, ip, 6 mg/kg
Procedure: Additionally, MTX was administered intraperitoneally to naïve rats (n=26) at a dosage of 6 mg/kg body weight on days 0, 2 and 4. […] The combined administration, MTX even at three times of its maximal tolerated dose, with folinic acid prevented MTX toxicity.

[3] = system: intracranial CNS-1 glioma tumors; test: Survival of glioma-bearing rats (Kaplan-Meier); format: in vivo, Lewis male rats; conditions: rats bearing intracranial CNS-1 glioma; monitored up to 60 days
Procedure: The three rats groups were monitored for survival. Rats were monitored daily and sacrificed when lost>20% of body weight and/or were unable to eat or drink. Rats were monitored up to 60 days after the tumor cell implantation. The Kaplan-Meier survival curves were analyzed according to the Wilcoxon test.

In the case of `CN(Cc1cnc2nc(N)nc(N)c2n1)c1ccc(C(=O)N[C@@H](CCC(=O)O)C(=O)O)cc1` [MTX, Methotrexate], the “tumor volume normalized to day 0 (tumor growth rate)” value ([1]; day 2 post treatment) is reported as 2.2±0.4, the “tumor volume normalized to day 0 (tumor growth rate)” value ([1]; day 7 post treatment) is reported as 2.2±0.4 and the “toxicity of MTX regimen” value [2] is reported as “symptomatic toxicity”. For the same compound, the median survival time [3] was 12 days.
